Patent US9656984B2, “PI3K/AKT/mTOR inhibitors and pharmaceutical uses thereof” (UNIVERSITE DE RENNES 1, priority 2013, dated 2017)

test system: AKT phosphorylation; experiment: In cellulo IC50 of AKT phosphorylation in CEM cells (Western blot densitometry); type: cell-based; details: Homo sapiens, CCRF-CEM, 2 hours incubation, AKT phosphorylation vs whole AKT, read-out: In vivo IC50
Procedure: CEM cells were incubated for 2 hours with the indicated concentrations of each mentioned compound of formula (I). Cells were then lysed and 100 μg of protein was loaded per line in an SDS-PAGE. Bands from AKT phosphorylation and whole AKT observed by Western blot were scanned and quantified by densitometric analysis. Based on these values, an in cellulo IC50 (half maximal inhibitory concentration) was measured for each compound of formula (I).
(§1) Immunoblots Excepted for immunoprecipitation experiments in which cells were lyzed with RIPA buffer, cells were lyzed for 30 min at 4° C. in Lysis buffer (25 mM HEPES pH 7.4, 1% v/v Triton X-100, 150 mM NaCl, 2 mM EGTA supplemented with a mix of protease inhibitors). Protein concentration was determined by the bicinchoninic acid method (Pierce, Rockford, Ill., USA) according to the manufacturer's protocol. Proteins were resolved by 8, 10 or 12% SDS-PAGE and transferred to a nitrocellulose membrane (GE Healthcare, Buckinghamshire, UK). The membrane was blocked 15 min with TBST (50 mM Tris, 160 mM NaCl, 0.05% v/v Tween 20, pH 7.4) containing 5% w/v dried skimmed milk (TBS™). Primary antibody was incubated overnight at 4° C. in TBS™. The membrane was intensively washed (TBST) and then the peroxydase-labeled anti-mouse IgG1 or IgG2a (CliniSciences, Nanterre, France) was added for 45 min. Proteins were visualized with the enhanced chemiluminescence substrate kit (ECL RevelBIOt®, Ozyme, Saint Quentin en Yvelines, France).

Row | SMILES | IC50
1 | O=[N+]([O-])C1=Cc2cc(Br)ccc2OC1c1ccc(Br)cc1 (centres unmarked) [Compound 9, 6-bromo-2-(4-bromo-phenyl)-3-nitro-2H-chromene] | 400 nM
2 | O=[N+]([O-])C1=Cc2cc(Br)ccc2OC1c1ccc(Cl)cc1 (centres unmarked) [Compound 10, 6-bromo-2-(4-chloro-phenyl)-3-nitro-2H-chromene] | 2000 nM

test system: MCF-7 (ER-positive) breast tumor cell line; experiment: Cell death by MTT assay, MCF-7; type: cell-based, human; details: MCF-7, 6.25 μM, 24 hours, mean of four experiments
Procedure: (§2) The ER-positive breast tumor cell lines MCF-7 and T47-D and the HER2 positive breast tumor cell lines MDA-MB-453 and BT474 (also ER-positive) were incubated with the indicated concentration of each mentioned compound of formula (I) for 24 hours and then cell death was assessed using MTT assay.
(§3) For each cell line, the percentage of cell death (mean of four experiments for cell lines MCF-7 and T47-D, and two experiments for cell lines MDA-MB-453 and BT474) is given in view of the increasing concentration of each tested compound of the invention.
(§4) Cell viability was assessed using the 3-[4,5-dimethylthiazol-2-yl]-2,5-diphenyltetrazolium bromide (MTT) viability assay (1). In brief, cells (4×10^4 per well) were cultured for 20 h in flat-bottomed 96 well plates with various concentrations of the apoptosis inducer. Then 0.015 ml of MTT (5 mg/ml in PBS) was added to each well and incubated for 4 h at 37° C. Formazan salt precipitats were dissolved by adding 0.115 ml of isopropyl alcohol containing 1% formic acid (v/v), and the absorbance was measured at 570 nm.

Row | SMILES | percentage of cell death
3 | O=[N+]([O-])C1=Cc2cc(Br)ccc2OC1c1ccc(Br)cc1 (centres unmarked) [Compound 9, 6-bromo-2-(4-bromo-phenyl)-3-nitro-2H-chromene] | 0%
4 | O=[N+]([O-])C1=Cc2cc(Br)ccc2OC1c1ccc(Cl)cc1 (centres unmarked) [Compound 10, 6-bromo-2-(4-chloro-phenyl)-3-nitro-2H-chromene] | 0%

same assay, conditions: MCF-7, 12.5 μM, 24 hours, mean of four experiments

Row | SMILES | percentage of cell death
5 | O=[N+]([O-])C1=Cc2cc(Br)ccc2OC1c1ccc(Br)cc1 (centres unmarked) [Compound 9, 6-bromo-2-(4-bromo-phenyl)-3-nitro-2H-chromene] | 32.14%
6 | O=[N+]([O-])C1=Cc2cc(Br)ccc2OC1c1ccc(Cl)cc1 (centres unmarked) [Compound 10, 6-bromo-2-(4-chloro-phenyl)-3-nitro-2H-chromene] | 24.06%

same assay, conditions: MCF-7, 25 μM, 24 hours, mean of four experiments

Row | SMILES | percentage of cell death
7 | O=[N+]([O-])C1=Cc2cc(Br)ccc2OC1c1ccc(Br)cc1 (centres unmarked) [Compound 9, 6-bromo-2-(4-bromo-phenyl)-3-nitro-2H-chromene] | 52.18%
8 | O=[N+]([O-])C1=Cc2cc(Br)ccc2OC1c1ccc(Cl)cc1 (centres unmarked) [Compound 10, 6-bromo-2-(4-chloro-phenyl)-3-nitro-2H-chromene] | 49.08%

same assay, conditions: MCF-7, 50 μM, 24 hours, mean of four experiments

Row | SMILES | percentage of cell death
9 | O=[N+]([O-])C1=Cc2cc(Br)ccc2OC1c1ccc(Br)cc1 (centres unmarked) [Compound 9, 6-bromo-2-(4-bromo-phenyl)-3-nitro-2H-chromene] | 80.16%
10 | O=[N+]([O-])C1=Cc2cc(Br)ccc2OC1c1ccc(Cl)cc1 (centres unmarked) [Compound 10, 6-bromo-2-(4-chloro-phenyl)-3-nitro-2H-chromene] | 81.85%

test system: T47-D (ER-positive) breast tumor cell line; experiment: Cell death by MTT assay, T47-D; type: cell-based, human; details: 6.25 μM, 24 hours, mean of four experiments
Procedure: as §2, §3, §4

Row | SMILES | percentage of cell death
11 | O=[N+]([O-])C1=Cc2cc(Br)ccc2OC1c1ccc(Br)cc1 (centres unmarked) [Compound 9, 6-bromo-2-(4-bromo-phenyl)-3-nitro-2H-chromene] | 20.53%
12 | O=[N+]([O-])C1=Cc2cc(Br)ccc2OC1c1ccc(Cl)cc1 (centres unmarked) [Compound 10, 6-bromo-2-(4-chloro-phenyl)-3-nitro-2H-chromene] | 4.62%

same assay, conditions: 12.5 μM, 24 hours, mean of four experiments

Row | SMILES | percentage of cell death
13 | O=[N+]([O-])C1=Cc2cc(Br)ccc2OC1c1ccc(Br)cc1 (centres unmarked) [Compound 9, 6-bromo-2-(4-bromo-phenyl)-3-nitro-2H-chromene] | 92.97%
14 | O=[N+]([O-])C1=Cc2cc(Br)ccc2OC1c1ccc(Cl)cc1 (centres unmarked) [Compound 10, 6-bromo-2-(4-chloro-phenyl)-3-nitro-2H-chromene] | 87.84%

same assay, conditions: 25 μM, 24 hours, mean of four experiments

Row | SMILES | percentage of cell death
15 | O=[N+]([O-])C1=Cc2cc(Br)ccc2OC1c1ccc(Br)cc1 (centres unmarked) [Compound 9, 6-bromo-2-(4-bromo-phenyl)-3-nitro-2H-chromene] | 91.2%
16 | O=[N+]([O-])C1=Cc2cc(Br)ccc2OC1c1ccc(Cl)cc1 (centres unmarked) [Compound 10, 6-bromo-2-(4-chloro-phenyl)-3-nitro-2H-chromene] | 91.71%

same assay, conditions: 50 μM, 24 hours, mean of four experiments

Row | SMILES | percentage of cell death
17 | O=[N+]([O-])C1=Cc2cc(Br)ccc2OC1c1ccc(Br)cc1 (centres unmarked) [Compound 9, 6-bromo-2-(4-bromo-phenyl)-3-nitro-2H-chromene] | 93.62%
18 | O=[N+]([O-])C1=Cc2cc(Br)ccc2OC1c1ccc(Cl)cc1 (centres unmarked) [Compound 10, 6-bromo-2-(4-chloro-phenyl)-3-nitro-2H-chromene] | 92.93%

test system: MDA-MB-453 (HER2 positive) breast tumor cell line; experiment: Cell death by MTT assay, MDA-MB-453; type: cell-based, human; details: MDA-MB-453, 0.390625 μM, 24 hours, mean of two experiments
Procedure: as §2, §3, §4

Row | SMILES | percentage of cell death
19 | O=[N+]([O-])C1=Cc2cc(Br)ccc2OC1c1ccc(Br)cc1 (centres unmarked) [Compound 9, 6-bromo-2-(4-bromo-phenyl)-3-nitro-2H-chromene] | 1.52%
20 | O=[N+]([O-])C1=Cc2cc(Br)ccc2OC1c1ccc(Cl)cc1 (centres unmarked) [Compound 10, 6-bromo-2-(4-chloro-phenyl)-3-nitro-2H-chromene] | 6.6%

same assay, conditions: MDA-MB-453, 0.78125 μM, 24 hours, mean of two experiments

Row | SMILES | percentage of cell death
21 | O=[N+]([O-])C1=Cc2cc(Br)ccc2OC1c1ccc(Br)cc1 (centres unmarked) [Compound 9, 6-bromo-2-(4-bromo-phenyl)-3-nitro-2H-chromene] | 7.56%
22 | O=[N+]([O-])C1=Cc2cc(Br)ccc2OC1c1ccc(Cl)cc1 (centres unmarked) [Compound 10, 6-bromo-2-(4-chloro-phenyl)-3-nitro-2H-chromene] | 7.8%

same assay, conditions: MDA-MB-453, 1.5625 μM, 24 hours, mean of two experiments

Row | SMILES | percentage of cell death
23 | O=[N+]([O-])C1=Cc2cc(Br)ccc2OC1c1ccc(Br)cc1 (centres unmarked) [Compound 9, 6-bromo-2-(4-bromo-phenyl)-3-nitro-2H-chromene] | 4.67%
24 | O=[N+]([O-])C1=Cc2cc(Br)ccc2OC1c1ccc(Cl)cc1 (centres unmarked) [Compound 10, 6-bromo-2-(4-chloro-phenyl)-3-nitro-2H-chromene] | 5.06%

same assay, conditions: MDA-MB-453, 3.125 μM, 24 hours, mean of two experiments

Row | SMILES | percentage of cell death
25 | O=[N+]([O-])C1=Cc2cc(Br)ccc2OC1c1ccc(Br)cc1 (centres unmarked) [Compound 9, 6-bromo-2-(4-bromo-phenyl)-3-nitro-2H-chromene] | 53.8%
26 | O=[N+]([O-])C1=Cc2cc(Br)ccc2OC1c1ccc(Cl)cc1 (centres unmarked) [Compound 10, 6-bromo-2-(4-chloro-phenyl)-3-nitro-2H-chromene] | 70.42%

same assay, conditions: MDA-MB-453, 6.25 μM, 24 hours, mean of two experiments

Row | SMILES | percentage of cell death
27 | O=[N+]([O-])C1=Cc2cc(Br)ccc2OC1c1ccc(Br)cc1 (centres unmarked) [Compound 9, 6-bromo-2-(4-bromo-phenyl)-3-nitro-2H-chromene] | 71.22%
28 | O=[N+]([O-])C1=Cc2cc(Br)ccc2OC1c1ccc(Cl)cc1 (centres unmarked) [Compound 10, 6-bromo-2-(4-chloro-phenyl)-3-nitro-2H-chromene] | 76.17%

same assay, conditions: MDA-MB-453, 12.5 μM, 24 hours, mean of two experiments

Row | SMILES | percentage of cell death
29 | O=[N+]([O-])C1=Cc2cc(Br)ccc2OC1c1ccc(Br)cc1 (centres unmarked) [Compound 9, 6-bromo-2-(4-bromo-phenyl)-3-nitro-2H-chromene] | 87.47%
30 | O=[N+]([O-])C1=Cc2cc(Br)ccc2OC1c1ccc(Cl)cc1 (centres unmarked) [Compound 10, 6-bromo-2-(4-chloro-phenyl)-3-nitro-2H-chromene] | 93.07%

same assay, conditions: MDA-MB-453, 25 μM, 24 hours, mean of two experiments

Row | SMILES | percentage of cell death
31 | O=[N+]([O-])C1=Cc2cc(Br)ccc2OC1c1ccc(Br)cc1 (centres unmarked) [Compound 9, 6-bromo-2-(4-bromo-phenyl)-3-nitro-2H-chromene] | 97.49%
32 | O=[N+]([O-])C1=Cc2cc(Br)ccc2OC1c1ccc(Cl)cc1 (centres unmarked) [Compound 10, 6-bromo-2-(4-chloro-phenyl)-3-nitro-2H-chromene] | 98.46%

same assay, conditions: MDA-MB-453, 50 μM, 24 hours, mean of two experiments

Row | SMILES | percentage of cell death
33 | O=[N+]([O-])C1=Cc2cc(Br)ccc2OC1c1ccc(Br)cc1 (centres unmarked) [Compound 9, 6-bromo-2-(4-bromo-phenyl)-3-nitro-2H-chromene] | 98.67%
34 | O=[N+]([O-])C1=Cc2cc(Br)ccc2OC1c1ccc(Cl)cc1 (centres unmarked) [Compound 10, 6-bromo-2-(4-chloro-phenyl)-3-nitro-2H-chromene] | 99.07%

test system: BT474 (ER-positive/HER2-positive) breast tumor cell line; experiment: Cell death by MTT assay, BT474; type: cell-based, human; details: BT474, 6.25 μM, 24 hours, mean of two experiments
Procedure: as §2, §3, §4

Row | SMILES | percentage of cell death
35 | O=[N+]([O-])C1=Cc2cc(Br)ccc2OC1c1ccc(Br)cc1 (centres unmarked) [Compound 9, 6-bromo-2-(4-bromo-phenyl)-3-nitro-2H-chromene] | 25.95%
36 | O=[N+]([O-])C1=Cc2cc(Br)ccc2OC1c1ccc(Cl)cc1 (centres unmarked) [Compound 10, 6-bromo-2-(4-chloro-phenyl)-3-nitro-2H-chromene] | 0%

same assay, conditions: BT474, 12.5 μM, 24 hours, mean of two experiments

Row | SMILES | percentage of cell death
37 | O=[N+]([O-])C1=Cc2cc(Br)ccc2OC1c1ccc(Br)cc1 (centres unmarked) [Compound 9, 6-bromo-2-(4-bromo-phenyl)-3-nitro-2H-chromene] | 71.4%
38 | O=[N+]([O-])C1=Cc2cc(Br)ccc2OC1c1ccc(Cl)cc1 (centres unmarked) [Compound 10, 6-bromo-2-(4-chloro-phenyl)-3-nitro-2H-chromene] | 40.42%

same assay, conditions: BT474, 25 μM, 24 hours, mean of two experiments

Row | SMILES | percentage of cell death
39 | O=[N+]([O-])C1=Cc2cc(Br)ccc2OC1c1ccc(Br)cc1 (centres unmarked) [Compound 9, 6-bromo-2-(4-bromo-phenyl)-3-nitro-2H-chromene] | 88.01%
40 | O=[N+]([O-])C1=Cc2cc(Br)ccc2OC1c1ccc(Cl)cc1 (centres unmarked) [Compound 10, 6-bromo-2-(4-chloro-phenyl)-3-nitro-2H-chromene] | 69.52%

same assay, conditions: BT474, 50 μM, 24 hours, mean of two experiments

Row | SMILES | percentage of cell death
41 | O=[N+]([O-])C1=Cc2cc(Br)ccc2OC1c1ccc(Br)cc1 (centres unmarked) [Compound 9, 6-bromo-2-(4-bromo-phenyl)-3-nitro-2H-chromene] | 93.62%
42 | O=[N+]([O-])C1=Cc2cc(Br)ccc2OC1c1ccc(Cl)cc1 (centres unmarked) [Compound 10, 6-bromo-2-(4-chloro-phenyl)-3-nitro-2H-chromene] | 93.84%

test system: PI3K/AKT activity (AKT phosphorylation); experiment: PI3K/AKT/mTOR pathway inhibitory activity: level of AKT phosphorylation in CEM cells over time; type: cell-based, human; details: 10 μM, FIGS. 7 and 8
Procedure: The CEM cell was incubated with 10 μM of each mentioned compound of formula (I) for the indicated times and then cells were lysed and 100 μg of protein was loaded per line and resolved by SDS-PAGE. The levels of AKT phosphorylation (hallmark of PI3K activation) and total AKT (loading control) were analyzed by Western blot and the amount of AKT phosphorylation relative to the total amount of protein AKT was quantified by densitometric analysis, the intensity of each band was scanned and the level of AKT phosphorylation was reported to the amount of whole AKT and the percentage of phosphorylated-AKT was depicted.
as §1

Row | SMILES | inhibitory activity on PI3K/AKT (level of AKT phosphorylation)
43 | O=[N+]([O-])C1=Cc2cc(Br)ccc2OC1c1ccc(Br)cc1 (centres unmarked) [Compound 9, 6-bromo-2-(4-bromo-phenyl)-3-nitro-2H-chromene] | very strong inhibitors
44 | O=[N+]([O-])C1=Cc2cc(Br)ccc2OC1c1ccc(Cl)cc1 (centres unmarked) [Compound 10, 6-bromo-2-(4-chloro-phenyl)-3-nitro-2H-chromene] | very strong inhibitors
